Values quoted from earlier work in paper PMC8231113, “Protein Secondary Structure Affects Glycan Clustering in Native Mass Spectrometry” (Life, 2021).

How the values were obtained:
[1] = target: wildtype GII.4 Saga P dimer; settings: read-out: KD, result from NMR; cited from earlier work
[2] = system: deamidated GII.4 Saga P dimer; parameters: method as in PMID 30899001, PMID 30071731; settings: NMR and HDX MS; cited from earlier work
hNoV P dimers = system: hNoV P dimers; parameters: method as in PMID 22170811, PMID 30899001; settings: cited from earlier work

| Compound | Kd [1] | reduction of glycan binding affinity of deamidated P dimer compared to the wildtype [2] | binding to hNoV (hNoV P dimers) |
| --- | --- | --- | --- |
| C[C@@H]1O[C@@H](O[C@H]2C(O)O[C@H](CO)[C@H](O)[C@@H]2O[C@H]2O[C@H](CO)[C@H](O)[C@H](O)[C@H]2O)[C@@H](O)[C@H](O)[C@@H]1O (some centres unmarked) [B trisaccharide] | 6.7 mM | roughly by an order of magnitude | – |
| O=C[C@@H](O)[C@H](O)[C@H](O)[C@@H](O)CO [L-galactose] | – | – | known not to bind |
| C[C@H](O)[C@@H](O)[C@@H](O)[C@H](O)C=O [fucose] | 22 mM | roughly by an order of magnitude | – |
